One may read the Km as the concentration of substrate that gives half-maximal velocity. As usually defined, the Ki is the dissociation constant of the complex between target and ligand, obtained from inhibition or displacement. Lower therefore signals a stronger hold on the target.

The target of data set [1] is rat 5HT transporter (rSERT) (Rattus norvegicus, UniProt P31652). As to the kind of experiment: [3H]5HT transport assay in HeLa cells transfected with BS4E-10 cDNA (rSERT). Type of data set: cell-based.
Chain of rat 5HT transporter (rSERT) (P31652 whole entry): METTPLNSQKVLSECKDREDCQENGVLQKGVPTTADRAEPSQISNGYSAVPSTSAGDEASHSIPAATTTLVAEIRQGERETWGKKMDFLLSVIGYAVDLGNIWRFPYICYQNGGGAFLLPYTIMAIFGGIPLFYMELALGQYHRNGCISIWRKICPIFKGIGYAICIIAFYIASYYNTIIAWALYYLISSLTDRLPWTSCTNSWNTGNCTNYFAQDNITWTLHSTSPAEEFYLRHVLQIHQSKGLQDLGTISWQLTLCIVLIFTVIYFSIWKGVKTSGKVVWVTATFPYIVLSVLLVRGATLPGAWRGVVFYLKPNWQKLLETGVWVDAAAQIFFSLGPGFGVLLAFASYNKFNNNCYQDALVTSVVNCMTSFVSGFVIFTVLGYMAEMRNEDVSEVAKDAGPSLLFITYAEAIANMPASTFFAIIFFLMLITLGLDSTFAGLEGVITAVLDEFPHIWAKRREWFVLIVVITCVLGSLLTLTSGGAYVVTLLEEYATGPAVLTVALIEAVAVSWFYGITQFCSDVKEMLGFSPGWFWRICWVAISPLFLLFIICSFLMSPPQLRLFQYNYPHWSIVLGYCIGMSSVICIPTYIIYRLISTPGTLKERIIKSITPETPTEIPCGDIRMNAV
The target of data set [2] is human 5HT transporter (hSERT) (Homo sapiens, UniProt P31645). Kind of data set: [3H]5HT transport assay in HeLa cells transfected with hSERT cDNA.
Chain of human 5HT transporter (hSERT) (P31645 whole entry): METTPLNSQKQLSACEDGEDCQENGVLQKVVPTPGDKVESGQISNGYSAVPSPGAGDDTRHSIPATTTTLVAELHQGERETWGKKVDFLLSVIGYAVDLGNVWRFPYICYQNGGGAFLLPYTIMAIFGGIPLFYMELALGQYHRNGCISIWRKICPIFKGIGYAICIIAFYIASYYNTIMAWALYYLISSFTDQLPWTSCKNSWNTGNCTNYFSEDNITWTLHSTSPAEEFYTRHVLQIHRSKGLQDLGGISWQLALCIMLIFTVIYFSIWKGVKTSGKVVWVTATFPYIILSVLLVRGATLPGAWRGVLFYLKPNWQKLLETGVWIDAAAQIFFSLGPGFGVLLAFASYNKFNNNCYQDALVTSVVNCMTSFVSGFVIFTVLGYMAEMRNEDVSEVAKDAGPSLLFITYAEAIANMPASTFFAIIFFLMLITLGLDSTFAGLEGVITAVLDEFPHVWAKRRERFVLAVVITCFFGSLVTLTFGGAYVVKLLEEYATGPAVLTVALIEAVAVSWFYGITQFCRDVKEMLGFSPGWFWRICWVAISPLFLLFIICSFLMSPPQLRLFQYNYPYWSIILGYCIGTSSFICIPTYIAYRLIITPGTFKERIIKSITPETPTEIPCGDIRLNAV
The test system of data set [3] is NCCc1c[nH]c2ccc(O)cc12. As to the kind of experiment: cells, lysate or membranes. The settings on record: other: increasing concentrations of unlabeled 5HT, Eadie-Hofstee transformation, transfected HeLa cells; pH 7.4; 37.0 °C.

Consider `NCCc1c[nH]c2ccc(O)cc12` [5HT, 5-hydroxytryptamine], for which the “Vmax of 5HT transport” value in data set [1] (increasing concentrations of unlabeled 5HT, transfected HeLa cells) is 6.7×10^-18 mol/cell/min. For the same molecule, the Michaelis-Menten constant (Km) in data set [1] (read-out: Km of 5HT transport, increasing concentrations of unlabeled 5HT, transfected HeLa cells) came to 1.5 µM.

In data set [1], `NCCc1ccc(O)c(O)c1` [Dopamine, dopamine] yielded a Ki of over 10 µM.

On to `COC(=O)[C@H]1[C@@H](c2ccc(I)cc2)C[C@@H]2CC[C@H]1N2C.O=C(O)C(O)C(O)C(=O)O` [RTI-55, 3β-[4-iodophenyl]tropan-2β-carboxylic acid methyl ester tartrate], for which the “inhibition of 5HT uptake (in words)” value in data set [2] was “increased potency over cocaine”.

As for `CC(N)Cc1ccccc1` (stereo not drawn) [amphetamine], the “inhibition of 5HT uptake (in words)” value in data set [2] was “block 5HT transport at low micromolar concentrations”.

With `COC(=O)[C@H]1[C@@H](OC(=O)c2ccccc2)C[C@@H]2CC[C@H]1N2C` [cocaine], the “inhibition of 5HT uptake (in words)” value in data set [2] was “block 5HT transport at low micromolar concentrations”. Moreover, the “potency for 5HT transport inhibition compared with inhibition of the cloned NA carrier” value in data set [1] (rSERT in transfected cells vs cloned NA transporter) is given as “predictably lower potency”. Also, the “antagonism of 5HT transport (in words)” value in data set [1] (transfected HeLa cells) is “blocked 5HT transport”.

Regarding `NCCc1c[nH]cn1` [histamine], the Ki in data set [1] was over 10 µM.

Turning to `OC1(c2ccc(Cl)cc2)c2ccccc2C2=NCCN21` (stereo not drawn) [mazindol], affinity in data set [1] was put at a Ki of 10 µM. This counts as double-digit micromolar.

In turn, `NC[C@H](O)c1ccc(O)c(O)c1` [noradrenaline] registered an inhibition constant Ki in data set [1] of over 10 µM.

On to “human 5HT transporter (hSERT) (Homo sapiens)”, for which the Km in data set [3] came out at 0.463 µM.
